Consider seven compounds from ChEMBL document CHEMBL1201862, “PubChem BioAssay data set” (2004).

In one test the test system is HEK293. The experiment in a line: HEK293T cell cytotoxicity, dose response, cytotoxicity control, ATP luminescence, cherry-pick samples (AID 687005).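 Note: cells exposed to compound for 48 hours.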 It counts as functional, cell-based. As to conditions: Homo sapiens.
Test [1] is described as follows: HEK293 Cytotoxicity Assay Measured in Cell-Based System Using Plate Reader - 7071-01_Inhibitor_Dose_CherryPick_Activity_Set2. It counts as functional.
Test [2] addresses T1, Methionyl-tRNA synthetase, putative (Trypanosoma brucei brucei, UniProt Q38C91). The format is functional, Trypanosoma brucei brucei strain 927/4 GUTat10.1.
The nature of test [3]: Counterscreen for inhibitors of Trypanosoma brucei methionyl tRNA synthetase (MetRS): Luminescence-based cell-based high throughput dose response assay to identify compounds that are cytotoxic to Jurkat human T lymphocyte cells. It counts as functional.
Test [4] deals with T1, Methionyl-tRNA synthetase, putative. It counts as functional, Trypanosoma brucei brucei strain 927/4 GUTat10.1. This is another data set of the same source.
Test [5] in a line: Late stage counterscreen for inhibitors of Trypanosoma brucei methionyl tRNA synthetase (MetRS): Luminescence-based cell-based high throughput dose response assay to identify compounds that are cytotoxic to Jurkat human T lymphocyte cells. It counts as functional.
Test [6] can be described thus: inhibitors of non-replicating M. tuberculosis, dose response, luciferase, dry powder (AID 651619). It counts as functional. As to conditions: Mycobacterium tuberculosis.
Test [7] is described as follows: inhibitors of non-replicating M. tuberculosis, dose response, luciferase, dry powder (AID 651620). The format is functional. As to conditions: Mycobacterium tuberculosis.
A short description of test [8]: growth inhibition of replicating M. tuberculosis, dose response, counter-screen, dry powder, IC90 (AID 651617). It counts as functional. The following applies: Mycobacterium tuberculosis.
Test [9] concerns the target COUP transcription factor 2 (Homo sapiens, UniProt P24468). The experiment in a line: Luminescence-based cell-based high throughput dose response assay to identify inhibitors of COUP-TFII (NR2F2). It counts as functional.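 Note: HEK293 cells transiently cotransfected with COUP-TFII expression vector and reporter; luciferase reporter luminescence driven by COUP-TFII from the pX2-168 reporter plasmid.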
A short description of test [10]: HeLa cell cytotoxicity, dose response, cytotoxicity control, 24 h, plate reader, powder samples, set 3 (AID 651864). It counts as functional, cell-based.
Test [11] in a line: Luminescence Cell-Based Dose Response HTS to Identify Activators of Luciferase Translation or Activity in H4 […] Cells. [Related pubchem assays: 1829 (Project Summary), 1814 (Primary HTS)]. The format is functional.
A further test has as its system H4. The test is described as follows: Luminescence Cell-Based Dose Response HTS to Identify Activators of 5'UTR Stem-Loop Driven Prion Protein mRNA Translation in H4 Neuroglioblastoma Cells. [Related pubchem assays: 1829 (Project Summary), 1814 (Primary HTS)]. It counts as functional. As to conditions: Homo sapiens.
Test [12] has as its system Vero. The experiment in a line: host cell cytotoxicity of antiviral hits, dose response, cytotoxicity control for West Nile virus antiviral project, secondary assay (AID 1650). The format is functional. As to conditions: Chlorocebus sabaeus.
Test [13] in a line: Luminescence Cell-Based Dose Retest to Confirm Inhibitors of Cancer Stem Cells. [Related pubchem assays (depositor defined):AID2717, AID2721]. It counts as functional. As to conditions: Homo sapiens.
Test [14] addresses T2, Replicative DNA helicase DnaB (Mycobacterium tuberculosis, UniProt P9WMR3).
T2 sequence (P9WMR3 whole entry): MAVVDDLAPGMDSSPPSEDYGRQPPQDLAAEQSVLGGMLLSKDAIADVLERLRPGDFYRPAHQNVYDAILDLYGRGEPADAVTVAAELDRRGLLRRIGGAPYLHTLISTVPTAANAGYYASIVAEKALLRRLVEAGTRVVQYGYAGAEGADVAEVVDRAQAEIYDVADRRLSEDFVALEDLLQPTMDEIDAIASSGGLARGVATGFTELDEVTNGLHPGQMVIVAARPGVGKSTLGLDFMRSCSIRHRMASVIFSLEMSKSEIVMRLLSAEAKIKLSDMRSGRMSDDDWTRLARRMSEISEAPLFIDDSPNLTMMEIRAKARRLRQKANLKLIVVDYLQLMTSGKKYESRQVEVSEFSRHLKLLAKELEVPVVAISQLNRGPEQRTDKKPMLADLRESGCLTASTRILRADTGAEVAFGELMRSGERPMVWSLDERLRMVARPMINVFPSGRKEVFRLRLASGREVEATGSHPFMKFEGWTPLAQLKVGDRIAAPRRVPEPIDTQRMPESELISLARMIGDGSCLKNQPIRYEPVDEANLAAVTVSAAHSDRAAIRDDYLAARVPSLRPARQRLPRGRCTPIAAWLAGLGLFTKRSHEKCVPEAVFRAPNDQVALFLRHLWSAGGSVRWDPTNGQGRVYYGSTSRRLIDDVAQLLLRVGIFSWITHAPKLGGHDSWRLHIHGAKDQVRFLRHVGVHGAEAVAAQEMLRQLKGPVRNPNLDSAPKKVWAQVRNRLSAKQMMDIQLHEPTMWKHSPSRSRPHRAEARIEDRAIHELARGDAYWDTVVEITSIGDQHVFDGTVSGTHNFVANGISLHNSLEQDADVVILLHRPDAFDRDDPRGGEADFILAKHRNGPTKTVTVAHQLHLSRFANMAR
The experiment in a line: DnaB intein splicing inhibitors, dose response, biochemical, cell-free fluorescence (AID 449749). It counts as functional.

For test [15], the system named is Vero. The test is described as follows: cells. It counts as functional, cell-based. As to conditions: Chlorocebus sabaeus.
The next test has as its target T3, Protein RecA (Mycobacterium tuberculosis, UniProt P9WHJ3).
T3 sequence (P9WHJ3 whole entry): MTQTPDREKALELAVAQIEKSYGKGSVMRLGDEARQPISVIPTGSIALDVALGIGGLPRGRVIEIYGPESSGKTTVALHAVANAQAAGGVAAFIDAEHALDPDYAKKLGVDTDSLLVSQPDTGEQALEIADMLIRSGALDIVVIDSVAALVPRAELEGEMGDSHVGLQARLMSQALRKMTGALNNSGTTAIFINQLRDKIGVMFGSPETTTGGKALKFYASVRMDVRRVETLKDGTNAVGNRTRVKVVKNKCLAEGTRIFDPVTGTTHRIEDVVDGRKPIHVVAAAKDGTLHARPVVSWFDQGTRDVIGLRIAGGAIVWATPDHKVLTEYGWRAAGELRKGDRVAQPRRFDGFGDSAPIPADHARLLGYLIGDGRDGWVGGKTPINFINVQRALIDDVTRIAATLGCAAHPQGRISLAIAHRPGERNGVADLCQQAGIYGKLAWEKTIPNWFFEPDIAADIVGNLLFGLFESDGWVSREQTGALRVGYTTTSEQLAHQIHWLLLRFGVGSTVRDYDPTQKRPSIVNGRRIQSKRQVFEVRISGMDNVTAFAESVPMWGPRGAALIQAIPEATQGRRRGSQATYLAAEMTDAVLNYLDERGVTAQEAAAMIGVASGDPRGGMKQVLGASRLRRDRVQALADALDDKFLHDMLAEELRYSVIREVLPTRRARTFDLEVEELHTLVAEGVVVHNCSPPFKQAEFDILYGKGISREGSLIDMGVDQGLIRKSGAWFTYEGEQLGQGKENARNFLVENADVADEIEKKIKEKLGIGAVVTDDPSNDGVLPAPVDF
The experiment in a line: Fluorescence Cell-Free Homogeneous Dose Retest to Identify Inhibitors of RecA-Intein Splicing Activity. [Related pubchem assays (depositor defined):AID2097, AID2223, AID489010, AID492950]. The format is functional.

The test system of the next test is INS1. The experiment in a line: beta cell apoptosis inhibitors, cytokine rescue, dose response, luminescence, retest (AID 449756).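 Note: cell death triggered by IL-1 beta plus TNF-alpha plus IFN-gamma mixture; protective hits raise ATP signal compared with cytokine alone wells.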 The format is functional, cell-based. The following applies: Rattus norvegicus.
For test [16], the system named is Vero. The experiment in a line: cells. The following applies: Chlorocebus sabaeus. It counts as functional.
The nature of test [17]: A Cell-Based Counter Screen testing Compounds that Inhibit VEEV TC-83, in strain KU V3526. It counts as functional.
Test [18] can be described thus: A Cell-Based Confirmatory Screen for Compounds that Inhibit VEEV, TC-83 (2). The format is functional.
A short description of test [19]: A Cell-Based Confirmatory Screen for Compounds that Inhibit VEEV, TC-83 (5). The format is functional.
Test [20] in a line: A Cell-Based Confirmatory Screen for Compounds that Inhibit VEEV TC-83 (4). It counts as functional.

The source made the active and inactive calls.

T1 sequence (Q38C91 whole entry): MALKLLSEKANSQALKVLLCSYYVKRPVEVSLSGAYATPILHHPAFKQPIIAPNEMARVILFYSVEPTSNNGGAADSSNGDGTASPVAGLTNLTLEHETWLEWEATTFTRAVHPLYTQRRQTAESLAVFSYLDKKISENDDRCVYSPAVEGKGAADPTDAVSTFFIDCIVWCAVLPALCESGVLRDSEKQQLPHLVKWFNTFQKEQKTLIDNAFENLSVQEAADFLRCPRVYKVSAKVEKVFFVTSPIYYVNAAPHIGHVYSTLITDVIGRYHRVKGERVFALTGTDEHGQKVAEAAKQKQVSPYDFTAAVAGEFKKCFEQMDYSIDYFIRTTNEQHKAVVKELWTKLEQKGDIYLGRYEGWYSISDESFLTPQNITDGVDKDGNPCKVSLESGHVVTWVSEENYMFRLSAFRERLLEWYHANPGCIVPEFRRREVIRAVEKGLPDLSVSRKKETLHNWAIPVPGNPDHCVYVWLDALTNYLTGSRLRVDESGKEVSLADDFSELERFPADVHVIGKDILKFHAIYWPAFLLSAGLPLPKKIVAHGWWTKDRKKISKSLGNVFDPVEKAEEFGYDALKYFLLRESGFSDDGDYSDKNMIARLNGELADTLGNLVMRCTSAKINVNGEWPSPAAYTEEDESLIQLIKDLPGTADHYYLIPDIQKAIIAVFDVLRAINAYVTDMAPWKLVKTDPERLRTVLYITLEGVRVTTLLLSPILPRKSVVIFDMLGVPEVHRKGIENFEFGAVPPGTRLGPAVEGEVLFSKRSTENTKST
Sequence of COUP transcription factor 2 (P24468 whole entry): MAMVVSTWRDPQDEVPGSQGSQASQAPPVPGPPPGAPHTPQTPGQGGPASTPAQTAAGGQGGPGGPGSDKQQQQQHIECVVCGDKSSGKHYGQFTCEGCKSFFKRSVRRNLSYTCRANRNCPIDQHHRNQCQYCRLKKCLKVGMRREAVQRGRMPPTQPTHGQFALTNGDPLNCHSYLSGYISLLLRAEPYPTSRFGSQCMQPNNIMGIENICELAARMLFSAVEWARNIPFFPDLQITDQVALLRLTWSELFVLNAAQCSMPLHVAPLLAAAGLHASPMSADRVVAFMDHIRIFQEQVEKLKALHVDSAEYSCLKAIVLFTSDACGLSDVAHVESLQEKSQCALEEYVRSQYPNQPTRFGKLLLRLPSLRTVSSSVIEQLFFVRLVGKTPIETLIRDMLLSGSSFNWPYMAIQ

For `COc1ccccc1C#Cc1ccc2c(c1)O[C@@H](CN(C)C(C)=O)[C@@H](C)CN([C@H](C)CO)S2(=O)=O`, the concentration at half-maximal activity (AC50) (in the test with HEK293; in [1]) was 9.59 µM (active) throughout.

As for `CC(=O)c1c[nH]c(C(=O)NCc2cccc(C(F)(F)F)c2)c1`, the IC50 was 2.07 µM (active) in test [2], 83.3 µM (inactive) in test [3], 1.16 µM (active) in test [4] and > 83.3 µM (inactive) in test [5].

With `COc1ccc(-c2nnc(SCc3ccccn3)o2)cc1`, the IC90 in test [6] was 4 µM (active); in [7], 4 µM (active); in test [8], 62 µM (active).

Regarding `c1ccc2cc3[nH]c(CNc4nc(N5CCOCC5)nc5c4ncn5-c4ccsc4)nc3cc2c1`, in [9], the concentration for half-maximal inhibition (IC50) was 6.35 µM (active).

In the case of `CCn1nccc1/N=C/c1ccc(N2CCCC2)cc1`, the AC50 in test [10] was > 160 µM (inactive).

Regarding `Clc1ccc2nnnc(-c3ccccc3)c2c1`, the half-maximal effective concentration (EC50) was 2.12 µM (active) in test [11], > 120 µM (not active) in the test with H4 and 3.78 µM (active) at Protein RecA. For the same compound, the cytotoxic concentration (CC50) in the test with Vero [12] is 12.3 µM (active); in the test with Vero [16], > 25 µM (active). Moreover, the figures for the AC50 (in test [13]; in test [14]; with INS1) were 3.08 µM (active), 24.8 µM (active) and 7.81 µM (active), respectively. Moreover, the half-inhibitory concentration (IC50) with Vero [15] was 9.71 µM (active); in test [17], 3.45 µM (active); in test [18], 6.12 µM (active).

As to `CCN1CCN(Cc2nc3ccc([N+](=O)[O-])cc3c(=O)n2-c2ccc(F)cc2)CC1`, the IC50 in test [19] is 0.99 µM (active); in [20], 0.6 µM (active).
